Consider 14 compounds from US20080039528A1, “Zinc finger ejectors and methods of use thereof” (KANSAS STATE UNIVERSITY RESEARCH FOUNDATION, priority 2004, published 2008).

Where two headings read alike, the source gives them in different places.

A word on the IC50: it is the midpoint of a concentration-inhibition curve. The IC90 is the concentration at which the effect reaches the 90% level.

For data set [1], the system named is L. donovani axenic amastigote-like parasites. The experiment in a line: Inhibition of the growth of L. donovani axenic amastigotes (3-day CellTiter 96 assay). The class given is cell-based, Leishmania donovani. Particulars: 3-day assay. As to the method: Inhibition of the growth of L. donovani parasites. A reported method for the inhibition of the growth of L. donovani parasites was followed. L. donovani axenic amastigotes were maintained in modified RPMI medium as previously described. Inhibition of growth by the compounds was measured in a 3-day assay using the tetrazolium dye-based CellTiter 96 Aqueous Non-Radioactive Cell Proliferation Assay Kit (Promega, Madison, Wis., USA) as previously described. The known anti-leishmaniasis drug, pentamidine, was used as a control.

For a further data set, the system named is P. falciparum D6. The data set is described as follows: Inhibition of the growth of P. falciparum D6 clone ([3H]-hypoxanthine uptake). The data set is classed as cell-based, Plasmodium falciparum. Particulars: for inhibitory activities (in words): P. falciparum D6 and W2 and L. donovani parasites, summary statement; for IC50: read-out: D6, IC50; for IC90: read-out: D6, IC90. As to the method: (§1) Inhibition of the growth of P. falciparum. A reported method for the inhibition of the growth of P. falciparum was followed. The incubation period of the parasites was 66 h and the starting parasitemia was 0.2% with a 1% hematocrit. The medium used was RPMI-1640 culture medium with no folate or p-aminobenzoic acid and 10% normal heat-inactivated human plasma, and P. falciparum D6 and W2 clones were used. D6 is a clone from the Sierra I/UNC isolates and is susceptible to chloroquine and pyrimethamine but has reduced susceptibilities to mefloquine and halofantrine. W2 is a clone of the Indochina I isolate and is resistant to chloroquine and pyrimethamine but susceptible to mefloquine. […] The diluted compounds were transferred ([…]) to test plates, 200 µL of parasitized erythrocytes (0.2% parasitemia and 1% hematocrit) was added, and was incubated at 37° C. in a controlled environment of 5% CO2, 5% O2, and 90% N2. After 42 h, 25 µL of [^3H]-hypoxanthine was added and the plates were incubated for an additional 24 h. The plates were then frozen at −70° C. to lyse the red cells and later thawed and harvested onto glass fiber filter mats by using a 96-well cell harvester. The filter mats were counted in a scintillation counter and the data were downloaded with the custom, automated analysis software developed by WRAIR. For each compound, the concentration-response profile was determined and 50% inhibitory concentrations (IC50) were determined by using a nonlinear, logistic dose-response analysis program.

The next data set relates to P. falciparum W2. The data set is described as follows: Inhibition of the growth of P. falciparum W2 clone ([3H]-hypoxanthine uptake). The data set is classed as cell-based, Plasmodium falciparum. Conditions: for IC50: read-out: W2, IC50; for IC90: read-out: W2, IC90. The protocol:
as §1

The next data set is described as follows: Solubility (qualitative). The data set is classed as physicochemical.
Where [2] appears, read: P. falciparum D6 intraerythrocytic forms, 66 h incubation.
Where [3] appears, read: P. falciparum W2 intraerythrocytic forms, 66 h incubation.
The mark [4] stands for this setting: Plasmodium falciparum, D6, 66 h, P. falciparum D6 intraerythrocytic forms, 66 h incubation.
[5] abbreviates: Plasmodium falciparum, W2, 66 h, P. falciparum W2 intraerythrocytic forms, 66 h incubation.
Where [6] appears, read: Plasmodium falciparum, P. falciparum W2 intraerythrocytic forms, 66 h incubation.
[7] abbreviates: Plasmodium falciparum, D6, 66 h.
Setting [8] is: Plasmodium falciparum, W2, 66 h.

For `N=C(N)c1ccc(OCCCCCOc2ccc(C(=N)N)cc2)cc1` [Pentamidine, reference compound], inhibition in data set [1] (Leishmania donovani, 72 h) was half-maximal at 1.19 ± 0.12 µM (IC50).
Take `COC(=O)c1ccc(OCCOCCOc2ccc(C(=O)OC)cc2)cc1` [Bisester 9, 2,2′-Bis-(4-methoxycarbonylphenoxy)ethyl ether]: the “inhibitory activities (in words)” value with P. falciparum D6 is recorded as “do not show inhibitory activities”. Besides, the half-inhibitory concentration (IC50) with P. falciparum D6 (setting [2]) was more than 60 µM; in the data set on P. falciparum W2 (setting [3]) it was more than 60000 nM; in data set [1], more than 100 µM.
Regarding `O=C(O)c1ccc(OCCCCCOc2ccc(C(=O)O)cc2)cc1` [Biscarboxylic acid 6, 1,5-Bis-[4-(hydroxycarbonyl)phenoxy]pentane], the “inhibitory activities (in words)” value with P. falciparum D6 is “do not show inhibitory activities”. The IC50 was more than 60 µM in the data set on P. falciparum D6 (setting [4]) and more than 60000 nM in the data set on P. falciparum W2 (setting [5]).
The like results for `COC(=O)c1ccc(OCCCCCOc2ccc(C(=O)OC)cc2)cc1` [Bisester 5, 1,5-Bis-(4-methoxycarbonylphenoxy)pentane] were, in that order, “do not show inhibitory activities”, more than 60 µM and more than 60000 nM.
Consider `OC(c1cc(C(F)(F)F)nc2c(C(F)(F)F)cccc12)C1CCCCN1` (centres unmarked) [Mefloquine, reference compound], for which the IC50 with P. falciparum D6 (setting [4]) stood at 0.013 µM; in the data set with P. falciparum W2 (Plasmodium falciparum, W2, P. falciparum W2, value in nM) it was 8 nM. The IC90 came out at 0.24 µM in the data set on P. falciparum D6 (setting [4]) and 0.015 µM in the data set on P. falciparum W2 (setting [6]).
Regarding `O=C([N-]O)c1ccc(OCCCCCOc2ccc(C(=O)[N-]O)cc2)cc1.[Na+].[Na+]` [Bishydroxamic acid sodium salt 11, 1,5-Bis-[4-(hydroxy-sodio-aminocarbonyl)phenoxy]pentane], in the data set with P. falciparum D6 (setting [2]), the IC50 came to 1 µM and the IC90 was 2 µM. Moreover, the IC50 in the data set on P. falciparum W2 (setting [3]) came out at 1090 nM. In addition, the solubility in water entry in the data set “Solubility (qualitative)” was “soluble in water”.
Consider `O=C(NO)c1ccc(OCCCCCOc2ccc(C(=O)NO)cc2)cc1` [Bishydroxamic acid 1, 1,5-Bis-[4-(hydroxyaminocarbonyl)phenoxy]pentane], for which the IC50 is 2.2 µM in the data set on P. falciparum D6 (setting [2]) and 3200 nM in the data set with P. falciparum W2 (setting [3]). Moreover, the IC90 in the data set on P. falciparum D6 (setting [2]) worked out at 6.2 µM.
Take `O=C([N-]O)c1ccc(OCCOCCOc2ccc(C(=O)[N-]O)cc2)cc1.[Na+].[Na+]` [Bishydroxamic acid sodium salt 12, 2,2′-Bis-[(4-hydroxy-sodio-aminocarbonyl)phenoxy]ethyl ether]: the figures for the IC50 (with P. falciparum D6 (setting [2]); in the data set with P. falciparum W2 (setting [3]); in data set [1]) were 0.26 µM, 360 nM and 37.4 ± 14 µM, respectively. The IC90 stood at 0.52 µM in the data set with P. falciparum D6 (setting [2]) and 0.6 µM in the data set with P. falciparum W2 (setting [3]). The solubility in water entry in “Solubility (qualitative)” is “soluble in water”.
Regarding `O=C(O)c1ccc(OC/C=C/COc2ccc(C(=O)O)cc2)cc1` [Biscarboxylic acid 8, trans-1,4-Bis-[4-(hydroxycarbonyl)phenoxy]-2-butene], the “inhibitory activities (in words)” value in the data set with P. falciparum D6 is “do not show inhibitory activities”. Further, the IC50 in the data set on P. falciparum D6 (setting [4]) is more than 60 µM; with P. falciparum W2 (setting [5]) it was more than 60000 nM.
For `CCN(CC)CCCC(C)Nc1ccnc2cc(Cl)ccc12` (centres unmarked) [Chloroquine, reference compound], the IC50 with P. falciparum D6 (setting [7]) worked out at 0.013 µM; in the data set on P. falciparum W2 (setting [8]), 450 nM. The IC90 with P. falciparum D6 (setting [7]) stood at 0.014 µM; with P. falciparum W2 (setting [8]) it was 0.65 µM.
Take `O=C(O)c1ccc(OCCOCCOc2ccc(C(=O)O)cc2)cc1` [Biscarboxylic acid 10, 2,2′-Bis-[(4-hydroxycarbonyl)phenoxy]ethyl ether]: the “inhibitory activities (in words)” value with P. falciparum D6 is “do not show inhibitory activities”. Besides, the IC50 in the data set with P. falciparum D6 (setting [2]) is more than 38 µM; in the data set on P. falciparum W2 (setting [3]), more than 38000 nM; in data set [1] it was more than 100 µM.
As for `O=C(NO)c1ccc(OC/C=C/COc2ccc(C(=O)NO)cc2)cc1` [Bishydroxamic acid 2, trans-1,4-Bis[4-(hydroxyaminocarbonyl)phenoxy]-2-butene], the IC50 in the data set with P. falciparum D6 (setting [4]) came out at 0.69 µM; in the data set with P. falciparum W2 (setting [5]) it was 1050 nM. Also, the figures for the IC90 in the data set on P. falciparum D6 (setting [4]) and with P. falciparum W2 (setting [6]) were 1.8 µM and 2.57 µM, respectively.
On to `COC(=O)c1ccc(OC/C=C/COc2ccc(C(=O)OC)cc2)cc1` [Bisester 7, trans-1,4-Bis-(4-methoxycarbonylphenoxy)-2-butene], for which the “inhibitory activities (in words)” value in the data set with P. falciparum D6 is reported as “do not show inhibitory activities”. Moreover, the IC50 in the data set with P. falciparum D6 (setting [4]) is more than 60 µM; in the data set with P. falciparum W2 (setting [5]), more than 60000 nM.
For `O=C(NO)c1ccc(OCCOCCOc2ccc(C(=O)NO)cc2)cc1` [Bishydroxamic acid 3, 2,2′-Bis-[(4-hydroxyaminocarbonyl)phenoxy]ethyl ether], the IC50 came to 0.24 µM in the data set on P. falciparum D6 (setting [2]), 350 nM in the data set on P. falciparum W2 (setting [3]) and 18.5 ± 6 µM in data set [1]. Also, the figures for the IC90 in the data set on P. falciparum D6 (setting [2]) and with P. falciparum W2 (setting [3]) were 0.47 µM and 0.6 µM, respectively. Further, the “solubility in DMSO” value in the data set “Solubility (qualitative)” (DMSO) is “soluble in DMSO”. Besides, the solubility in water entry in the data set “Solubility (qualitative)” is “only slightly soluble in water”.
